Results reported in patent publication US20250275953A1, “VODOBATINIB FOR REDUCING PROGRESSION OF PARKINSON'S DISEASE” (Sun Pharma Advanced Research Company Ltd., priority 2022, published 2025).
“And” between values parts separate entries of the source, which are not always exact repeats. Equal entries are not always repeated. Where two headings read alike, the source gives them in different places.

Assay: Plasma pharmacokinetics, Parkinson's disease patients, once daily for 14 days
Assay type: in vivo, human
Details: PD patients; for AUC(0-t) / AUC / half-life / Cmax / Tmax: human; for AUC(0-t): read-out: AUC0-24 Mean
Excerpt: Of these, 44 subjects completed the study. An additional 10 subjects were enrolled in the open label part of the study, of these, one subject was discontinued due to an AE of vomiting.
Safety population was comprised of 48 subjects (not including those in the open label cohorts) and PK population was comprised of 36 subjects from double blind part and 10 subjects from open label part of the study. No subjects were discontinued from the study due to protocol deviation.
The PK analysis was performed on the PK population and safety analysis was performed on this population as per the protocol described before.
Study NCT02970019 was a multi-center safety and tolerability study of vodobatinib in 60 subjects with Parkinson's Disease (diagnosed with PD according to the Brain Bank criteria of the United Kingdom Parkinson's Disease Society) who were randomized to receive placebo or various daily doses of vodobatinib for 14 days in a parallel assignment design with quadruple masking (participant, care provider, investigator, and outcomes assessor.) In study NCT02970019, consecutive cohorts of up to eight subjects received once-daily doses of 6, 12, 18, 24, 48, 96, 192, or 384 mg of study drug for 14 days, with six subjects in each cohort on vodobatinib and two subjects in each cohort on placebo. An alternating panel design was used such that subjects in the 6 and 18 mg cohorts were the same, and subjects in the 12 and 24 mg cohorts were the same, thus yielding 48 total individuals enrolled in the eight cohorts. There was a wash-out period of 14 days between each were studied in sequential ascending dose cohorts. In parallel to the double-blind cohorts, up to four subjects per dose cohort were enrolled in an open-label study of vodobatinib to receive 24, 48 or 96 mg once-daily doses of for 14 days. These subjects underwent lumbar puncture to collect CSF on Day 1, and 2-3 h after the last morning dose on Day 14. PK blood draws (for both double-blind and open label) were collected at pre-dose (˜30 min) and at 0.5, 1, 2, 4, 8, 12 and 24 h post-dose on Days 1 and 14.
Vodobatinib levels in plasma and CSF were determined using a fully validated LC-MS/MS assay with lower limits of quantitation (LLOQ) of 2.5 ng/mL and 0.05 ng/mL, respectively. PK analyses were performed using standard non-compartmental analysis with Phoenix® WinNonlin® software Version 6.4 to estimate the PK parameters Cmax, Tmax, AUCtau and Css. Descriptive statistics were used to characterize vodobatinib concentrations and PK parameters in plasma and CSF. Statistical calculations were performed with SAS software (Version 9.4, SAS Institute, Cary, North Carolina, USA).

## Cc1ccc(C(=O)NNC(=O)c2c(C)cccc2Cl)cc1C#Cc1cnc2ccccc2c1 [N′-(2-chloro-6-methylbenzoyl)-4-methyl-3-[2-(3-quinolyl)ethynyl]-benzohydrazide]
6 mg
  Max Conc Geo. Mean: 138.72 ng/mL
  Max Conc Mean: 182 ng/mL and 181.67 ng/mL
  Max Conc Median: 133.50 ng/mL
12 mg
  Max Conc Geo. Mean: 270.17 ng/mL
  Max Conc Mean: 301.00 ng/mL
  Max Conc Median: 242.50 ng/mL
18 mg
  Max Conc Geo. Mean: 300.12 ng/mL
  Max Conc Mean: 308.50 ng/mL
  Max Conc Median: 310.00 ng/mL
24 mg
  Max Conc Geo. Mean: 677.41 ng/mL
  Max Conc Mean: 715.25 ng/mL
  Max Conc Median: 657.00 ng/mL
48 mg
  Max Conc Geo. Mean: 930.30 ng/mL
  Max Conc Mean: 1110.44 ng/mL
  Max Conc Median: 844.00 ng/mL
96 mg
  Max Conc Geo. Mean: 2298.86 ng/mL
  Max Conc Mean: 2802.50 ng/mL
  Max Conc Median: 2350.00 ng/mL
192 mg
  Max Conc Geo. Mean: 2561.39 ng/mL
  Max Conc Mean: 3233.80 ng/mL
  Max Conc Median: 2580.00 ng/mL
384 mg
  Max Conc Geo. Mean: 4198.52 ng/mL
  Max Conc Mean: 4512 ng/mL and 4512.00 ng/mL
  Max Conc Median: 5320.00 ng/mL
6 mg, Day 14, plasma
  AUC(0-t): 1250 ng·h/mL
6 mg, read-out: AUC Over Dosing Interval Geo. Mean
  AUC: 1090 ng·h/mL
6 mg, read-out: AUC Over Dosing Interval Mean
  AUC: 1250 ng·h/mL
6 mg, read-out: AUC Over Dosing Interval Median
  AUC: 1040 ng·h/mL
6 mg, read-out: AUC Over Dosing Interval Min, Max
  AUC: 470 to 2360 ng·h/mL
6 mg, read-out: Half-Life Lambda Z Geo. Mean (converted)
  half-life: 668 min
6 mg, read-out: Half-Life Lambda Z Mean (converted)
  half-life: 668 min
6 mg, read-out: Half-Life Lambda Z Median (converted)
  half-life: 668 min
6 mg, read-out: Half-Life Lambda Z Min, Max (converted)
  half-life: 666 min
12 mg, read-out: AUC Over Dosing Interval Geo. Mean
  AUC: 2710 ng·h/mL
12 mg, read-out: AUC Over Dosing Interval Mean
  AUC: 3250 ng·h/mL
12 mg, read-out: AUC Over Dosing Interval Median
  AUC: 2530 ng·h/mL
12 mg, read-out: AUC Over Dosing Interval Min, Max
  AUC: 1440 to 8240 ng·h/mL
18 mg, read-out: AUC Over Dosing Interval Geo. Mean
  AUC: 2860 ng·h/mL
18 mg, read-out: AUC Over Dosing Interval Mean
  AUC: 3370 ng·h/mL
18 mg, read-out: AUC Over Dosing Interval Median
  AUC: 4160 ng·h/mL
18 mg, read-out: AUC Over Dosing Interval Min, Max
  AUC: 908 to 4260 ng·h/mL
18 mg, read-out: Half-Life Lambda Z Mean (converted)
  half-life: 808 min
18 mg, read-out: Half-Life Lambda Z Median (converted)
  half-life: 808 min
18 mg, read-out: Half-Life Lambda Z Min, Max (converted)
  half-life: 810 min
24 mg, read-out: AUC Over Dosing Interval Geo. Mean
  AUC: 5250 ng·h/mL
24 mg, read-out: AUC Over Dosing Interval Mean
  AUC: 5720 ng·h/mL
24 mg, read-out: AUC Over Dosing Interval Median
  AUC: 6640 ng·h/mL
24 mg, read-out: AUC Over Dosing Interval Min, Max
  AUC: 2460 to 8080 ng·h/mL
24 mg, read-out: Half-Life Lambda Z Geo. Mean (converted)
  half-life: 630 min
24 mg, read-out: Half-Life Lambda Z Mean (converted)
  half-life: 638 min
24 mg, read-out: Half-Life Lambda Z Median (converted)
  half-life: 638 min
24 mg, read-out: Half-Life Lambda Z Min, Max (converted)
  half-life: 534 to 744 min
48 mg, read-out: AUC Over Dosing Interval Geo. Mean
  AUC: 7010 ng·h/mL
48 mg, read-out: AUC Over Dosing Interval Mean
  AUC: 7910 ng·h/mL
48 mg, read-out: AUC Over Dosing Interval Median
  AUC: 8670 ng·h/mL
48 mg, read-out: AUC Over Dosing Interval Min, Max
  AUC: 2910 to 14200 ng·h/mL
48 mg, read-out: Half-Life Lambda Z Geo. Mean (converted)
  half-life: 998 min
48 mg, read-out: Half-Life Lambda Z Mean (converted)
  half-life: 1180 min
48 mg, read-out: Half-Life Lambda Z Median (converted)
  half-life: 681 min
48 mg, read-out: Half-Life Lambda Z Min, Max (converted)
  half-life: 672 to 2180 min
96 mg, read-out: AUC Over Dosing Interval Geo. Mean
  AUC: 15100 ng·h/mL
96 mg, read-out: AUC Over Dosing Interval Mean
  AUC: 17100 ng·h/mL
96 mg, read-out: AUC Over Dosing Interval Median
  AUC: 13900 ng·h/mL
96 mg, read-out: AUC Over Dosing Interval Min, Max
  AUC: 6870 to 38700 ng·h/mL
96 mg, read-out: Half-Life Lambda Z Geo. Mean (converted)
  half-life: 793 min
96 mg, read-out: Half-Life Lambda Z Mean (converted)
  half-life: 940 min
96 mg, read-out: Half-Life Lambda Z Median (converted)
  half-life: 928 min
96 mg, read-out: Half-Life Lambda Z Min, Max (converted)
  half-life: 342 to 1570 min
192 mg, read-out: AUC Over Dosing Interval Geo. Mean
  AUC: 27600 ng·h/mL
192 mg, read-out: AUC Over Dosing Interval Mean
  AUC: 33800 ng·h/mL
192 mg, read-out: AUC Over Dosing Interval Median
  AUC: 24800 ng·h/mL
192 mg, read-out: AUC Over Dosing Interval Min, Max
  AUC: 13800 to 82700 ng·h/mL
384 mg, Day 14, plasma
  AUC(0-t): 43800 ng·h/mL
384 mg, read-out: AUC Over Dosing Interval Geo. Mean
  AUC: 40400 ng·h/mL
384 mg, read-out: AUC Over Dosing Interval Mean
  AUC: 43800 ng·h/mL
384 mg, read-out: AUC Over Dosing Interval Median
  AUC: 44500 ng·h/mL
384 mg, read-out: AUC Over Dosing Interval Min, Max
  AUC: 18600 to 66700 ng·h/mL
oral, 6 mg, Day 1, plasma
  Cmax: 164 ng/mL
  AUC(0-t): 794 ng·h/mL
oral, 6 mg, Day 1, plasma, read-out: Tmax median
  Tmax: 2 h
oral, 6 mg, Day 14, plasma
  Cmax: 182 ng/mL
oral, 6 mg, Day 14, plasma, read-out: Tmax median (range)
  Tmax: 2 h
oral, 12 mg, Day 1, plasma
  Cmax: 255 ng/mL
  AUC(0-t): 2040 ng·h/mL
oral, 12 mg, Day 1, plasma, read-out: Tmax median
  Tmax: 2 h
oral, 12 mg, Day 14, plasma
  Cmax: 301 ng/mL
  AUC(0-t): 3250 ng·h/mL
oral, 12 mg, Day 14, plasma, read-out: Tmax median (range)
  Tmax: 2 h
oral, 18 mg, Day 1, plasma
  Cmax: 410 ng/mL
  AUC(0-t): 2730 ng·h/mL
oral, 18 mg, Day 1, plasma, read-out: Tmax median
  Tmax: 2 h
oral, 18 mg, Day 14, plasma
  Cmax: 309 ng/mL
  AUC(0-t): 3370 ng·h/mL
oral, 18 mg, Day 14, plasma, read-out: Tmax median (range)
  Tmax: 3 h
oral, 24 mg, Day 1, plasma
  Cmax: 385 ng/mL
  AUC(0-t): 2690 ng·h/mL
oral, 24 mg, Day 1, plasma, read-out: Tmax median
  Tmax: 4 h
oral, 24 mg, Day 14, plasma
  Cmax: 715 ng/mL
  AUC(0-t): 5720 ng·h/mL
oral, 24 mg, Day 14, plasma, read-out: Tmax median (range)
  Tmax: 2 h
oral, 48 mg, Day 1, plasma
  Cmax: 964 ng/mL
  AUC(0-t): 5310 ng·h/mL
oral, 48 mg, Day 1, plasma, read-out: Tmax median
  Tmax: 4 h
oral, 48 mg, Day 14, plasma
  Cmax: 1110 ng/mL
  AUC(0-t): 7910 ng·h/mL
oral, 48 mg, Day 14, plasma, read-out: Tmax median (range)
  Tmax: 2 h
oral, 96 mg, Day 1, plasma
  Cmax: 1360 ng/mL
  AUC(0-t): 10200 ng·h/mL
oral, 96 mg, Day 1, plasma, read-out: Tmax median
  Tmax: 4 h
oral, 96 mg, Day 14, plasma
  Cmax: 2800 ng/mL
  AUC(0-t): 17100 ng·h/mL
oral, 96 mg, Day 14, plasma, read-out: Tmax median (range)
  Tmax: 2 h
oral, 192 mg, Day 1, plasma
  Cmax: 1530 ng/mL
  AUC(0-t): 18600 ng·h/mL
oral, 192 mg, Day 1, plasma, read-out: Tmax median
  Tmax: 2 h
oral, 192 mg, Day 14, plasma
  Cmax: 3230 ng/mL
  AUC(0-t): 33800 ng·h/mL
oral, 192 mg, Day 14, plasma, read-out: Tmax median (range)
  Tmax: 1 h
oral, 384 mg, Day 1, plasma
  Cmax: 3020 ng/mL
  AUC(0-t): 29900 ng·h/mL
oral, 384 mg, Day 1, plasma, read-out: Tmax median
  Tmax: 4.1 h
oral, 384 mg, Day 14, plasma
  Cmax: 4510 ng/mL
  AUC(0-t): 43500 ng·h/mL
oral, 384 mg, Day 14, plasma, read-out: Tmax median (range)
  Tmax: 1 h
